# From patent publication US7528239B1, “Receptor that binds trail” (Immunex Corporation, priority 1997, dated 2009)
# Peptide text beside a SMILES is read from it. * marks the point of attachment. Cbz = O=C(OCc1ccccc1)*; CH2F = FC*
# How the values were obtained:
# [1] = test system: CV-1/EBNA cells expressing TRAIL-R; test: TRAIL-R-induced death of transfected CV-1/EBNA cells (lacZ co-transfection, X-gal staining); format: cell-based, African green monkey; details: 48 hours after transfection
# Method: CV-1/EBNA cells were transfected, by the DEAE-dextran method, with expression plasmids for TRAIL-R (pDC409-TRAIL-R), together with a threefold excess of empty expression vector (pDC409) in the presence or absence of z-VAD-fmk (10 μM; in the culture medium), or together with a threefold excess of expression vector pDC409-CrmA, pDC409-p35, or pDC409-FADD-DN. In addition, 400 ng/slide of an expression vector for the E. coli lacz gene was co-transfected together with all DNA mixes. The transfected cells were cultured in chambers mounted on slides.
# 48 hours after transfection, cells were washed with PBS, fixed with glutaraldehyde and incubated with X-gal (5-bromo-4-chloro-3-indoxyl-β-D-galactopyranoside). Cells expressing β-galactosidase stain blue. A decrease in the percentage of stained cells indicates loss of β-galactosidase expression, and correlates with death of cells that express the protein(s) co-transfected with the lacz gene.
# [2] = target: T1, full length human TRAIL-R (Homo sapiens, UniProt O14763, V191A); test: FACS binding assay of LZ-TRAIL to CV-1/EBNA cells expressing recombinant TRAIL-R; details: LZ-TRAIL 5 μg/ml; cells co-transfected with TRAIL-R and CrmA vectors compared to CrmA vector alone; 48 hours after transfection
# T1 construct: expressed in transfected cells; host or cells: CV-1/EBNA cells, co-transfected with pDC409-CrmA
# Method: Full length human TRAIL-R was expressed and tested for the ability to bind TRAIL. The binding assay was conducted as follows.
# A fusion protein comprising a leucine zipper peptide fused to the N-terminus of a soluble TRAIL polypeptide (LZ-TRAIL) was employed in the assay. An expression construct was prepared, essentially as described for preparation of the Flag®-TRAIL expression construct in Wiley et al. (Immunity, 3:673-682, 1995; hereby incorporated by reference), except that DNA encoding the Flag® peptide was replaced with a sequence encoding a modified leucine zipper that allows for trimerization. The construct, in expression vector pDC409, encoded a leader sequence derived from human cytomegalovirus, followed by the leucine zipper moiety fused to the N-terminus of a soluble TRAIL polypeptide. The TRAIL polypeptide comprised amino acids 95-281 of human TRAIL (a fragment of the extracellular domain), as described in Wiley et al. (supra). […]
# CV-1/EBNA cells were co-transfected with pDC409-TRAIL-R together with pDC409-CrmA, or with pDC409-CrmA alone. […] 48 hours after transfection, cells were detached non-enzymatically and incubated with LZ-TRAIL (5 μg/ml), a biotinylated anti-LZ monoclonal antibody (5 μg/ml), and phycoerythrin-conjugated streptavidin (1:400), before analysis by fluorescence-activated cell scanning (FACS). […]
# [3] = test system: TRAIL-induced apoptosis of Jurkat cells; test: Blocking of TRAIL-induced apoptosis of Jurkat cells (MTT cell viability assay); format: cell-based, human; details: LZ-TRAIL 13 ng/ml, test substance serially diluted from 10 μg/ml
# Method: TRAIL-R was tested for the ability to block TRAIL-induced apoptosis of Jurkat cells. The TRAIL-R employed in the assay was in the form of a fusion protein designated sTRAIL-R/Fc, which comprised the extracellular domain of human TRAIL-R, fused to the N-terminus of an Fc polypeptide derived from human IgG1.
# A fusion protein designated TNF-R2—Fc, employed as a control, comprised the extracellular domain of the TNF receptor protein known as p75 or p80 TNF-R (Smith et al., Science 248:1019-1023, 1990; Smith et al. Cell 76:959-962, 1994), fused to an Fc polypeptide. A mouse monoclonal antibody that is a blocking antibody directed against human TRAIL, was employed in the assay as well.
# Jurkat cells were incubated with varying or constant concentrations of LZ-TRAIL (the LZ-TRAIL fusion protein described in example 6), in the absence or presence of varying concentrations of sTRAIL-R-Fc, TNF-R2-Fc, or the TRAIL-specific monoclonal antibody. Cell death was quantitated using an MTT cell viability assay (MTT is 3-[4,5-dimethylthiazol-2-yl]-2,5-diphenyltetrazolium bromide), as previously described (Mosmann, J. Immunol. Methods 65:55-63, 1983). […]
molecule,measurement,setting,value
"COC(=O)C[C@H](NC(=O)[C@H](C)NC(=O)[C@@H](NC(=O)OCc1ccccc1)C(C)C)C(=O)CF [z-VAD-fmk, benzyloxycarbonyl-Val-Ala-Asp-fluoromethylketone, reference compound] (Cbz-Val-Ala-Asp(OMe)-CH2F)",reduction of death of transfected cells expressing TRAIL-R,[1]; 10 μM in the culture medium,effectively reduced death
LZ-TRAIL: leucine zipper peptide fused to the N-terminus of a soluble TRAIL polypeptide (amino acids 95-281 of human TRAIL),binding of LZ-TRAIL to transfected cells,[2],significantly enhanced binding
"sTRAIL-R/Fc: extracellular domain of human TRAIL-R, fused to the N-terminus of an Fc polypeptide derived from human IgG1",blocking of TRAIL-induced apoptosis (percent cell death),[3],blocked TRAIL-induced apoptosis in a dose dependent fashion
same,blocking of TRAIL-induced apoptosis (percent cell death),[3]; listed as soluble TRAIL-R/Fc fusion protein,blocked TRAIL-induced apoptosis
"baculovirus p35: 35-kilodalton protein encoded by Autographa californica nuclear polyhedrosis virus, expressed from pDC409-p35 (protein, UniProt P08160 1-299, looked up) Early 35 kDa protein: MCVIFPVEIDVSQTIIRDCQVDKQTRELVYINKIMNTQLTKPVLMMFNISGPIRSVTRKNNNLRDRIKSKVDEQFDQLERDYSDQMDGFHDSIKYFKDEHYSVSCQNGSVLKSKFAKILKSHDYTDKKSIEAYEKYCLPKLVDERNDYYVAVCVLKPGFENGSNQVLSFEYNPIGNKVIVPFAHEINDTGLYEYDVVAYVDSVQFDGEQFEEFVQSLILPSSFKNSEKVLYYNEASKNKSMIYKALEFTTESSWGKSEKYNWKIFCNGFIYDKKSKVLYVKLHNVTSALNKNVILNTIK",reduction of death of transfected cells expressing TRAIL-R,"[1]; co-transfected, threefold excess of expression vector",effectively reduced death
